These results are taken from publication PMC12904036, “Mechanism‐Driven Screening of Membrane‐Targeting and Pore‐Forming Antimicrobial Peptides” (Advanced Science, 2025).

One data set has as its system HEK293T cells. Briefly: Cytotoxicity, Alamar Blue assay. The class given is cell-based. Here is the method:
Cytotoxicity was evaluated using the Alamar Blue assay on HEK293T cells. HEK293T cells were cultured in DMEM supplemented with 10% FBS and incubated at 37 °C with 5% CO2. Amphotericin B and staurosporine were used as controls. Peptide solutions were diluted in PBS (pH 7.4) with final concentrations ranging from 1 to 128 µg·mL^−1. The cells were treated with peptides for 72 h. After that, 10 µL Alamar Blue was added into each well. The plate was incubated for 4 hours under dark condition and detected the absorbance at 570 nm. The inhibition rate of cell growth was calculated via (OD570, peptide ‐ OD570, PBS) / (OD570, staurosporine ‐ OD570, PBS). The half maximal cytotoxic concentration (CC50) was fitted with GraphPad Prism. Each test was conducted in triplicate.
(Alamar Blue is a resazurin reagent that responds to reducing activity.)

Data set [1] has as its system Bacillus subtilis ATCC 6633. Format: cell-based. To be noted: ATCC 6633, 20 h. As for the experimental part: (§1) The minimal inhibitory concentration (MIC) of all screened peptides were determined by the microbroth dilution method. Bacterial strains included four Gram‐negative strains (Acinetobacter baumanii ATCC 17978, Acinetobacter baumanii ATCC 19606, Escherichia coli ATCC 25922, Escherichia coli DH5 α ) and seven Gram‐positive strains (Staphylococcus aureus ATCC 25923, Staphylococcus aureus ATCC 6538, Bacillus subtilis ATCC 6633, Enterococcus faecalis ATCC 29212, Micrococcus luteus CMCC(B) 28001, Staphylococcus capitis ATCC 27842, Staphylococcus hominis ATCC 27844). Bacteria were incubated overnight at 37 °C and diluted to 5 × 10^5 cfu·mL^−1. Then 99 µL bacterial suspension was added into each well of a 96‐well plate. Peptides were dissolved in cation adjusted Mueller‐Hinton (CAMHB) medium at an initial concentration of 1 mg·mL^−1 and then diluted in twofold gradient concentrations, ranging from 0.125 to 128 µg·mL^−1 with 1 µL in each well. The plate was placed in incubator for 20 h at 37 °C. The lowest concentration of peptide causing no observed bacteria grow was its MIC.

The conditions of data set [2]: synthesis report, ref ChinaPeptides Co., Ltd. quality reports, Figure S7, cited from earlier work.
The subject of data set [3] is Micrococcus luteus CMCC(B) 28001. The class given is cell-based. The settings on record: CMCC(B) 28001, 20 h. Here is the method: as §1
For data set [4], the system named is Staphylococcus hominis ATCC 27844. The class given is cell-based. The settings on record: ATCC 27844, 20 h. Here is the method:
as §1

Data set [5] concerns Staphylococcus capitis ATCC 27842. The class given is cell-based. The settings on record: ATCC 27842, 20 h. As for the experimental part:
as §1

The subject of data set [6] is Escherichia coli ATCC 25922. Format: cell-based. To be noted: ATCC 25922, 20 h. As for the experimental part:
as §1

For data set [7], the system named is Enterococcus faecalis ATCC 29212. Format: cell-based. The settings on record: ATCC 29212, 20 h. As for the experimental part: as §1
For the next data set, the system named is Escherichia coli DH5α. Format: cell-based. To be noted: 20 h. Here is the method: as §1
Data set [8] deals with Acinetobacter baumanii ATCC 17978. The class given is cell-based. The settings on record: ATCC 17978, 20 h. As for the experimental part:
as §1

In data set [9] the test system is Staphylococcus aureus ATCC 25923. The class given is cell-based. To be noted: ATCC 25923, 20 h. Here is the method: as §1
Data set [10] deals with Staphylococcus aureus ATCC 6538. Format: cell-based. The settings on record: ATCC 6538, 20 h. As for the experimental part:
as §1

In data set [11] the test system is Acinetobacter baumanii ATCC 19606. Format: cell-based. The settings on record: ATCC 19606, 20 h. As for the experimental part: as §1

A word on the Solubility: it is the concentration that dissolves in the medium under given conditions.

Like-named read-outs stand apart in the source and are kept apart here. Ends that are not written are not given here.

Regarding `C[C@@H]1[C@H](O)[C@@H](C)/C=C/C=C/C=C/C=C/C=C/C=C/C=C/[C@H](O[C@@H]2O[C@H](C)[C@@H](O)[C@H](N)[C@@H]2O)C[C@@H]2O[C@](O)(C[C@@H](O)C[C@@H](O)[C@H](O)CC[C@@H](O)C[C@@H](O)CC(=O)O[C@H]1C)C[C@H](O)[C@H]2C(=O)O` [Amphotericin B], in the data set with HEK293T cells, the “Cytotoxicity CC50 HEK293T” value turned out to be 67.06 µg/mL.

Regarding `CN[C@@H]1C[C@H]2O[C@@](C)([C@@H]1OC)n1c3ccccc3c3c4c(c5c6ccccc6n2c5c31)C(=O)NC4` [Staurospotine, Staurosporine], the “Cytotoxicity CC50 HEK293T” value in the data set on HEK293T cells (HEK293T, Alamar Blue, 72 h treatment, 1 to 128 µg/mL, absorbance 570 nm, triplicate) came out at 0.26 µg/mL.

Regarding AKLVALVNKFIGYLKQNTYC [Peptide 201], the “MIC B. subtilis ATCC 6633” value in data set [1] worked out at 32 µg/mL. Also, in data set [2] (in 25%ACN/75%H2O), the Solubility was 1000 µg/mL.

On to GFKSKLEQISGICRPLFAAMWK [Peptide 68], for which the “MIC M. luteus CMCC(B) 28001” value in [3] is 128 µg/mL. For the same molecule, the “MIC S. hominis ATCC 27844” value in data set [4] stood at 32 µg/mL. For the same molecule, in data set [1], the “MIC B. subtilis ATCC 6633” value stood at 64 µg/mL. Moreover, in data set [5], the “MIC S. capitis ATCC 27842” value is 16 µg/mL. In addition, the “Cytotoxicity CC50 HEK293T” value with HEK293T cells was more than 128 µg/mL. The Solubility in [2] (in 25%ACN/75%H2O) was 1000 µg/mL.

As for GPIHRLINPFFNLLQGIFTN [Peptide 98], in data set [3], the “MIC M. luteus CMCC(B) 28001” value turned out to be 128 µg/mL. Also, the “MIC B. subtilis ATCC 6633” value in [1] was found to be 32 µg/mL. Further, the Solubility in [2] (in 25%ACN/75%H2O) is 1000 µg/mL.

In the case of IYKILQLFHKRFKKGFFG [Peptide 1304], in data set [3], the “MIC M. luteus CMCC(B) 28001” value was found to be 16 µg/mL. Also, the “MIC E. coli ATCC 25922” value in [6] came out at 64 µg/mL. In addition, the “MIC S. hominis ATCC 27844” value in data set [4] stood at 4 µg/mL. In data set [1], the “MIC B. subtilis ATCC 6633” value was found to be 4 µg/mL. In [7], the “MIC E. faecalis ATCC 29212” value was 128 µg/mL. In addition, the “MIC E. coli DH5α” value against Escherichia coli DH5α was 32 µg/mL. For the same molecule, the “MIC S. capitis ATCC 27842” value in [5] was found to be 4 µg/mL. Moreover, the “MIC A. baumannii ATCC 17978” value in data set [8] was found to be 16 µg/mL. Moreover, in data set [9], the “MIC S. aureus ATCC 25923” value stood at 128 µg/mL. For the same molecule, in data set [10], the “MIC S. aureus ATCC 6538” value turned out to be 16 µg/mL. In addition, the “MIC A. baumannii ATCC 19606” value in [11] was 16 µg/mL. In addition, the Solubility in [2] (in 15%ACN/85%H2O) is 1000 µg/mL.

Take “KKIASIIYAHVKALRARKILDNLKRLAANRP [Peptide 615]”: in data set [3], the “MIC M. luteus CMCC(B) 28001” value was 64 µg/mL. Further, the “MIC E. coli ATCC 25922” value in data set [6] amounted to 64 µg/mL. Further, the “MIC S. hominis ATCC 27844” value in [4] turned out to be 8 µg/mL. Also, in data set [1], the “MIC B. subtilis ATCC 6633” value was 16 µg/mL. Besides, the “MIC E. coli DH5α” value in the data set with Escherichia coli DH5α was determined as 8 µg/mL. Further, the “MIC S. capitis ATCC 27842” value in data set [5] was 16 µg/mL. Further, the “MIC A. baumannii ATCC 17978” value in data set [8] amounted to 32 µg/mL. Besides, in data set [11], the “MIC A. baumannii ATCC 19606” value came to 16 µg/mL. Moreover, the Solubility in [2] (in 15%ACN/85%H2O) is 1000 µg/mL.

As for KLAKLLKLLLWAQNELDQKK [Peptide 623], the “MIC M. luteus CMCC(B) 28001” value in data set [3] was found to be 64 µg/mL. Also, the “MIC E. coli ATCC 25922” value in [6] was 128 µg/mL. The “MIC S. hominis ATCC 27844” value in data set [4] was 16 µg/mL. Further, the “MIC B. subtilis ATCC 6633” value in data set [1] turned out to be 8 µg/mL. Also, the “MIC E. coli DH5α” value against Escherichia coli DH5α was 128 µg/mL. In addition, the “MIC S. capitis ATCC 27842” value in data set [5] is 64 µg/mL. In addition, the “MIC A. baumannii ATCC 17978” value in data set [8] was found to be 32 µg/mL. The “MIC S. aureus ATCC 25923” value in [9] was 128 µg/mL. The “MIC S. aureus ATCC 6538” value in data set [10] worked out at 32 µg/mL. Besides, the “MIC A. baumannii ATCC 19606” value in [11] was determined as 32 µg/mL. Moreover, in data set [2] (in 15%ACN/85%H2O), the Solubility is 1000 µg/mL.

For the molecule KVKVLIIRKLTRHIAKLKSKK [Peptide 58], the “MIC M. luteus CMCC(B) 28001” value in data set [3] is 8 µg/mL. In addition, in [4], the “MIC S. hominis ATCC 27844” value worked out at 2 µg/mL. Moreover, the “MIC B. subtilis ATCC 6633” value in data set [1] turned out to be 8 µg/mL. In addition, the “MIC E. faecalis ATCC 29212” value in data set [7] stood at 128 µg/mL. Moreover, in data set [5], the “MIC S. capitis ATCC 27842” value was 4 µg/mL. For the same molecule, the “MIC A. baumannii ATCC 19606” value in data set [11] came to 128 µg/mL. Besides, the Solubility in data set [2] (in 15%ACN/85%H2O) is 1000 µg/mL.
